Measured values from ChEMBL document CHEMBL3045770, “Design and synthesis of some thieno[2,3-c]pyridazine derivatives of expected anticancer activity” (2013).

Columns and labels:
Format in all cases: functional
OVCAR-4 = assay: Cytotoxicity against Homo sapiens (human) OVCAR4 cells after 48 hr by SRB assay; details: OVCAR-4, 48 h
A498 = assay: Cytotoxicity against Homo sapiens (human) A498 cells after 48 hr by SRB assay; details: A498, 48 h
BT-549 = assay: Cytotoxicity against Homo sapiens (human) BT549 cells after 48 hr by SRB assay; details: BT-549, 48 h
SN12C = assay: Cytotoxicity against Homo sapiens (human) SN12C cells after 48 hr by SRB assay
UACC-257 = assay: Cytotoxicity against Homo sapiens (human) UACC257 cells after 48 hr by SRB assay; details: UACC-257, 48 h
IGROV-1 = assay: Cytotoxicity against Homo sapiens (human) IGROV1 cells after 48 hr by SRB assay; details: IGROV-1, 48 h
SF-268 = assay: Cytotoxicity against Homo sapiens (human) SF268 cells after 48 hr by SRB assay; details: SF-268, 48 h
MDA-MB-468 = assay: Cytotoxicity against Homo sapiens (human) MDA-MB-468 cells after 48 hr by SRB assay; details: MDA-MB-468, 48 h
RXF 393 = assay: Cytotoxicity against Homo sapiens (human) RXF393 cells after 48 hr by SRB assay; details: RXF 393, 48 h
MCF7 = assay: Cytotoxicity against Homo sapiens (human) MCF7 cells after 48 hr by SRB assay; details: MCF7, 48 h
NCI-H23 = assay: Cytotoxicity against Homo sapiens (human) NCI-H23 cells after 48 hr by SRB assay; details: NCI-H23, 48 h
HOP-62 = assay: Cytotoxicity against Homo sapiens (human) HOP62 cells after 48 hr by SRB assay; details: HOP-62, 48 h
NCI-H322M = assay: Cytotoxicity against Homo sapiens (human) NCI-H322M cells after 48 hr by SRB assay
[1] = read-out: LC50 (the source's name)

## Oc1c(-c2nnc(-c3ccc(Cl)cc3)o2)sc2nnc(-c3ccccc3)c(-c3ccccc3)c12
OVCAR-4
  GI50: 4.75 µM
  TGI: 18.3 µM
OVCAR-4; [1]
  CC50: 0.0183 µM
A498
  GI50: 5.92 µM
  TGI: 12.5 µM
A498; [1]
  CC50: 0.0183 µM
BT-549
  GI50: 1.01 µM
  TGI: 18.3 µM
SN12C
  GI50: 4.65 µM
  TGI: 17.6 µM
UACC-257
  GI50: 6.16 µM
  TGI: 15 µM
UACC-257; [1]
  CC50: 0.0183 µM
IGROV-1
  GI50: 3.66 µM
  TGI: 6.35 µM
IGROV-1; [1]
  CC50: 0.0183 µM
SF-268
  GI50: 5.52 µM
  TGI: 18.3 µM
MDA-MB-468
  GI50: 5.04 µM
  TGI: 10.5 µM
RXF 393
  GI50: 3.66 µM
  TGI: 18.3 µM
MCF7
  GI50: 4.43 µM
  TGI: 18.3 µM
MCF7; [1]
  CC50: 0.0183 µM
NCI-H23
  GI50: 4.94 µM
  TGI: 18.3 µM
HOP-62
  GI50: 4.99 µM
  TGI: 18.3 µM
NCI-H322M
  GI50: 4.17 µM
  TGI: 10.6 µM
NCI-H322M; [1]
  CC50: 0.0183 µM
